Like-named read-outs stand apart in the source and are kept apart here. Ends that are not written are not given here.
Assays:
[1] = system: keratinocytes of the basal layer of the epidermis; experiment: Ki67 immunohistochemistry (mitotic index) in skin explants; type: cell-based, Human; details: for number of mitotic cells compared to EGF: day 1
Protocol: (§1) Skin explants were prepared from abdominal plastic surgery. Some explants were delipidated with alcohol to obtain a dehydrated skin.
(§2) These explants were maintained in maintenance medium supplied by the provider Biopredic International for 5 days. Test items are applied twice per day with 5 μL per explant.
(§3) For each time of analysis (D1 and D5), histologies on delipidated explants, treated explants with test items, the DMSO 0.3% control and water control, are performed.
(§4) After receipt in the laboratory, each skin explant in the maintenance medium is delipidated with 5 μL alcohol during 3 hours.
(§5) After 3 hours, all skin explants are treated two per day with test items, and they are incubated at 37° C.+/−2° C., 5% CO2 for 1 day or 5 days.
Epithelial proliferation was analyzed by immunohistochemistry using anti-Ki67 antibody. […] Counting the number of labeled cells (keratinocytes of the basal layer of the epidermis) is performed and provides the total number of basal cells to calculate the % of labeled cells.
The results of the immunohistochemical analysis of Ki67 are reported in Table 5 and expressed as % of labelled at the basal layer of the epidermis. The Error! […] Immunohistochemical analysis of mitotic activity is shown in annex 4 with a reminder of the average for each analysed conditions.

[2] = system: elastic fibers of the dermis; experiment: morphometric quantification of elastic fibers in skin explants; type: cell-based, Human; details: for Morphometric quantification of elastic fibers in the middle dermis (%) / Morphometric quantification of elastic fibers in the superficial dermis (%): applied twice per day, 5 μL per explant
Protocol: as §1, §2, §3, §4, §5
The immunohistochemical staining intensity in the elastic fibers is evaluated using a semi-quantitative histological score.
The percentage area taken up by elastic fibers in the dermis was calculated in the dermis and the average superficial dermis. Results are presents in Table 4, FIG. 2 and FIG. 3.

GLUT4 = experiment: GLUT4myc translocation in L6 myotubes; type: cell-based
Excerpt: We determined the effect of six synthetic peptides (SP1-6) and four peptide compositions on in vitro GLUT4 translocation using the L6 rat skeletal muscle cell line. A clone of the L6 cell line containing overexpression of GLUT4 tagged with a c-myc epitope (courtesy of Prof. Amira Klip, Hospital for Sick Children, Toronto) was used to investigate the efficacy of each synthetic peptide and peptide composition for effects on GLUT4 translocation in a dose-response design.
L6-GLUT4myc cells were grown in 10% FBS and 2 μg/ml blasticidin. Cells were grown for 48-72 hours before being seeded in 24-well plates at 15,000 cells per well in 2% FBS and allowed to differentiate for 6 to 8 days prior to experimentation.
L6-GLUT4myc cells were serum-starved for three hours prior to incubation with 100 nM of insulin for 30 mins, or 200, 20, 2.0 and 0.2 μM of SP, and 2, 1, 0.5 and 0.25 mg/ml of peptide composition for 3 hours respectively. A 3 hour incubation period was selected based on previous findings identifying that incubation with branch chain amino acid containing di-peptides for 3 hours increases glucose uptake in L6 myotubes 1. Treatments were staggered in order to determine GLUT4myc translocation at the same time point.
The quantity of myc-tagged GLUT4 at the cell surface was measured by antibody-coupled colorimetric assay. Briefly, after incubation with either insulin for 30 mins or synthetic peptide or peptide composition for 3 hours respectively, L6-GLUT4myc cells were fixed via incubation with 3% paraformaldehyde (PFA). A 0.1 M glycine solution was then added to quench PFA and cells were blocked with 5% goat serum. The myotube monolayer was exposed to anti-myc antibody and then incubated with peroxidase conjugated donkey anti-mouse IgG. 1 mL of o-phenylenediamine dihydrochloride (OPD) reagent was added to each well and this reaction was stopped by adding […] of 3 M HCL. To determine GLUT4 translocation to cell surface, a measured aliquot of each condition was determined spectrophotometrically on a plate reader using absorbance at 492 nm.
In addition to an untreated control, 100 nM insulin was utilised to stimulate a maximal GLUT4 translocation response i.e. a positive control in each experiment. […] Treatments were staggered so that all conditions (untreated, insulin and sample) were processed at the same time-point.

TNF-α = TNF-α secretion by LPS-stimulated THP-1 differentiated macrophages (Biolegend ELISA); type: cell-based, human; details: THP-1 differentiated macrophages treated 24 hrs. prior to LPS stimulation
Protocol: TNF-α is secreted by macrophages in response to stimulation by endotoxins such as lipopolysaccharides (LPS). TNF-α is thought to be involved in systemic inflammation and dysregulation of TNF-α production is thought to be involved in many diseases. The Biolegend assay is a sandwich ELISA kit that is designed for the accurate quantitation of human TNF-α from cell culture supernatant, serum or plasma.
THP-1 monocytes were seeded in a 96 well plate at 10,000 cells per well in RPMI containing 10% fetal calf serum (FCS), 1% Pen/strep, 1% L-glutamine, 100 nM PMA and allowed to differentiated for 72 h prior to experimentation.
Following differentiation the cells were incubated with 100 ng/ml, 10 ng/ml or 1 ng/ml synthetic peptide for 24 h respectively.
Following treatment the cells were stimulated with 10 ng/ml LPS for 5 h and the quantity of TNF-α in the supernatant determined using the Biolegend assay ELISA kit.
Results were calculated as a percentage of the untreated control. An increase in optical density reading indicates greater quantity of TNF-α release into cell culture supernatant.
All experiments were prepared in duplicate on three plates (6 wells/conditions). Significance was calculated using Students t-test (*p<0.05 compared to control, **p<0.01 compared to control, *** p<0.001 compared to control).

MRSA ATCC 43300 = experiment: microbe, parasite or virus in culture; type: cell-based, Methicillin-Resistant Staphylococcus aureus; details: for zone of inhibition at 64 µg/mL: Staphylococcus aureus, 10 μL at 64 μg/mL on disk, read-out: Inhibition zone diameter (mm)
Protocol: (§6) Blank disks were placed in the plates and 10 μL of each compound (at 64 μg/mL—maximum concentration tested) added.
(§7) After incubation period results were registered and plates photographed.

E. coli ATCC 25922 = experiment: microbe, parasite or virus in culture; type: cell-based; details: for zone of inhibition at 64 µg/mL: Escherichia coli, 10 μL at 64 μg/mL on disk, read-out: Inhibition zone diameter (mm)
Protocol: as §6, §7

A. baumannii ATCC 19606 = experiment: antibacterial activity testing in solid media (disk, Mueller-Hinton plates); type: cell-based, Acinetobacter baumannii; design: key to Inhibition zone diameter (mm): NI—No Inhibition of growth; details: for zone of inhibition at 64 µg/mL: Acinetobacter baumannii, read-out: Inhibition zone diameter (mm); for zone of inhibition at 64 µg/mL / Inhibition zone diameter (mm): 10 μL at 64 μg/mL on disk
Protocol: as §6, §7

[3] = final result, not at the levels of susceptibility

| Compound | % of Ki67 positive cells in the basal layer of the epidermis ([1]; D1) [%] | % of Ki67 positive cells in the basal layer of the epidermis ([1]; D5) [%] | Morphometric quantification of elastic fibers in the middle dermis (%) ([2]; D1) | Morphometric quantification of elastic fibers in the superficial dermis (%) ([2]; D1) | Morphometric quantification of elastic fibers in the middle dermis (%) ([2]; D5) | Morphometric quantification of elastic fibers in the superficial dermis (%) ([2]; D5) | also measured |
| --- | --- | --- | --- | --- | --- | --- | --- |
| QQYGIAASPFLQSAA [0723.07] | 22.22 | 5.26 | 6.46 | 4 | 5.33 | 5.15 |  |
| DTFYNAAWDPSNR [SP1, reference compound] |  |  |  |  |  |  | cell viability (GLUT4; 200 μM, L6-GLUT4myc cells): poor cell viability |
| EDLRLVDLVIPVNGPGKFE [0723.06] | 31.97 | 5.04 | 4.54 | 3.8 | 8.67 | 4.03 | number of mitotic cells compared to EGF [1]: increase |
| EGF (Epidermal Growth Factor): Epidermal Growth Factor, 10 ng/mL, comparison condition in the skin explant tests [reference compound] | 25.11 | 4.2 | 5.68 | 3.64 | 6.61 | 5.61 |  |
| RHGEWRPSY [0723.01] | 18.57 | 3.92 | 7.59 | 4.45 | 10.17 | 10.21 | elastic fibers in the middle dermis compared to the water control ([2]; D5): increase; elastic fibers in the superficial dermis compared to control water ([2]; D5): increase by twice |
| HPVAITASSNLNLLGFG [0723.02] | 19.61 | 6.73 | 11.75 | 6.09 | 9.08 | 7.59 | TNF-α secretion reduced vs. untreated cells (TNF-α): 80%; elastic fibers in the middle dermis compared to the water control ([2]; D5): increase; elastic fibers in the middle dermis compared to control water ([2]; day 1): increase doubled |
| VLLEQQEQEPQH [0723.05] | 9.48 | 3.08 | 8.8 | 6.34 | 6.61 | 6.26 |  |
| VLDLAIPVNRPGQL [SP2, glucose transport promoting fragment of Pea Protein P13918, Section C] |  |  |  |  |  |  | GLUT4 translocation (GLUT4; 0.2-2 μM, 3 hours): trend for SP2 to increase GLUT4 translocation; stimulatory effect on skeletal muscle GLUT4 translocation (GLUT4; conclusion of the experiment): trend for stimulatory effect |
| DEHQKIHQFR [0723.08] | 27.83 | 5.72 | 3.52 | 2.7 | 7.27 | 5.32 | TNF-α secretion reduced vs. untreated cells (TNF-α): 80%; number of mitotic cells compared to EGF [1]: increase |
| O=C(O)c1cn(C2CC2)c2cc(N3CCNCC3)c(F)cc2c1=O [CIP, Ciprofloxacin] |  |  |  |  |  |  | zone of inhibition at 64 µg/mL (MRSA ATCC 43300; Rep 1): 27 mm; zone of inhibition at 64 µg/mL (MRSA ATCC 43300; Rep 2): 28 mm; zone of inhibition at 64 µg/mL (MRSA ATCC 43300; Rep 3): 29 mm; zone of inhibition at 64 µg/mL (E. coli ATCC 25922; ATCC25922, Rep 1): 42 mm; zone of inhibition at 64 µg/mL (E. coli ATCC 25922; ATCC25922, Rep 2): 40 mm; zone of inhibition at 64 µg/mL (E. coli ATCC 25922; ATCC25922, Rep 3): 42 mm; zone of inhibition at 64 µg/mL (A. baumannii ATCC 19606; ATCC19606, Rep 1): 27 mm; zone of inhibition at 64 µg/mL (A. baumannii ATCC 19606; ATCC19606, Rep 2): 28 mm; zone of inhibition at 64 µg/mL (A. baumannii ATCC 19606; ATCC19606, Rep 3): 27 mm |
| HGEWRPSYEKQEDEE [0723.03] | 22.01 | 10.04 | 4.9 | 3 | 9 | 11.68 | elastic fibers in the middle dermis compared to the water control ([2]; D5): increase; elastic fibers in the superficial dermis compared to control water ([2]; D5): increase by twice |
| RPYYSNAPQEIF [0723.04] | 14.97 | 11.36 | 5.22 | 3.28 | 9 | 8.94 |  |
| LNSQKFPILNLVQLSATR [I_87_SF] |  |  |  |  |  |  | inhibition zone (MRSA ATCC 43300; agar plates): 18 mm; inhibitory activity (MRSA ATCC 43300; [3]): some inhibitory activity; inhibition zone (E. coli ATCC 25922; ATCC 25922): 9-10 mm; inhibitory activity (E. coli ATCC 25922; [3]): some inhibitory activity; Inhibition zone diameter (mm) (A. baumannii ATCC 19606; Rep 1): NI; Inhibition zone diameter (mm) (A. baumannii ATCC 19606; Rep 2): NI; Inhibition zone diameter (mm) (A. baumannii ATCC 19606; Rep 3): NI; inhibitory activity (A. baumannii ATCC 19606; final result): No activity |

— patent publication US20180291070A1, “PEPTIDES, AND USES THEREOF” (priority 2015, published 2018)
